Measurements taken from patent US11491167B2, “Combination product of Bcl-2 inhibitor and chemotherapeutic agent and use thereof in the prevention and/or treatment of diseases” (ASCENTAGE PHARMA (SUZHOU) CO., LTD., priority 2018, dated 2022).
Where “and” joins values, the source holds several entries; their conditions need not be identical. Equal values may be shown once. Read-outs that look alike come from different tables or passages of the source.

Assays:
[1] = tested on: human NCI-H146 (SCLC) mouse xenograft tumor model; conditions: 5 mice per group; for RTV on day 21 after administration (mean ± standard error) / T/C (%) on day 21 after administration / RTV on day 35 after administration (mean ± standard error) / T/C (%) on day 35 after administration: Compound 6 100 mg/kg p.o. qd; for RTV on day 21 after administration (mean ± standard error) / T/C (%) on day 21 after administration: TPT 1 mg/kg p.o. d1-5/w then d1-3/w; for RTV on day 35 after administration (mean ± standard error) / T/C (%) on day 35 after administration: TPT 1 mg/kg p.o.; for CR (tumor complete regression), mice on day 21 after administration / PR (tumor partial regression), mice on day 21 after administration: Compound 6 100 mg/kg, TPT 1 mg/kg; for CR (tumor complete regression), mice on day 46 after administration / PR (tumor partial regression), mice on day 46 after administration / Tumor remission rate % on day 46 after administration: day 46, observation after discontinuation; for Tumor remission rate % on day 21 after administration / Tumor remission rate % on day 46 after administration: remission including CR, PR and SD
Procedure: A subcutaneous xenograft tumor model of human tumor immunodeficient mice was established by cell inoculation: tumor cells in logarithmic growth phase were collected, counted and resuspended in 1×PBS, and the cell suspension concentration was adjusted to 2.5-5×10^7/mL. Using a 1 mL syringe ([…]), the tumor cells were inoculated subcutaneously in the right side of immunodeficient mice, 5-10×106/0.2 mL/mouse (All animals were purchased from Beijing Vital River Laboratory Animal Technology Co., Ltd. SCXK (Beijing) 2012-0001). All animal experiments were strictly in accordance with the laboratory animal use and management practices of GenePharma Co., Ltd. and Ascentage Pharma Group Co., Ltd. The calculation of relevant parameters referred to the Chinese CFDA “Guidelines for Non-Clinical Research Techniques of Cytotoxic Antitumor Drugs”. The NCI-H146 cells used in the Institute were a gift from Professor Wang Shaomeng of the University of Michigan, USA.
Animal body weight and tumor size were measured twice a week during the experiment. The conditions and death of the animals were observed every day. Routine monitoring included the effects of tumor growth and treatment on normal animal behaviors, including activity, feeding and drinking situations, weight gain or loss, eyes, coat and other abnormalities in the experimental animals. The deaths and clinical symptoms observed during the experiment were recorded in the raw data. The entire operations of administration, measurement of mouse body weight and tumor volume were performed in a clean bench. Plasma and tumor tissues were collected, weighed and photographed after the end of the last administration according to the experimental protocol. Plasma and tumor samples were frozen and stored at −80° C.
Tumor volume (TV) was calculated as: TV=a×b2/2, in which a and b represented the length and width of the tumor as measured, respectively. The relative tumor volume (RTV) was calculated as: RTV=Vt/V1, in which V1 was the tumor volume at the time of grouping and administration, and Vt was the tumor volume measured on a day after administration. […] Change of body weight %=(measured body weight−body weight at the time of grouping)/body weight at the time of grouping×100%.
The synergistic analysis was performed by the following formula 6: synergy factor=((A/C)×(B/C))/(AB/C); A=RTV value of the group administered with A only; B=RTV value of the group administered with B only; C=RTV value of the vehicle control group; AB=RTV value of the group administered with A and B in combination (Clarke R. Issues in experimental design and endpoint analysis in the study of experimental cytotoxic agents in vivo in breast cancer and other models [J]. Breast Cancer Research & Treatment, 1997, 46(2-3): 255-278).
(1) The experimental method was as described in Section (2) of Example 1. In the experiment, the SCLC mouse xenograft tumor model derived from human NCI-H146 tumor cells was established (Gould S E et al. Translational value of mouse models in oncology drug development. Nature medicine. 2015 21, 431-439). When the tumor volume reached 100-200 mm3, randomization was performed according to tumor volume and mouse body weight, and two independent in vivo experiments were performed on the model to evaluate the anti-tumor effects of the combination of Compound 6 and the chemotherapeutic agent TPT (topotecan).
In this experiment, Compound 6 was administered at a dose of 100 mg/kg, p.o., qd; TPT was administered at a dose of 1 mg/kg, p.o., d1-5/w (i.e., a 2-day interval after 5 days of administration).

[2] = tested on: NCI-H146 (small cell lung cancer (SCLC)); assay: WST (CCK-8) anti-proliferation experiment, topotecan alone or combined with Compound 6; type: cell-based; conditions: Homo sapiens, NCI-H146, 72 h, topotecan alone, read-out: IC50 for proliferation inhibition

O=C(NS(=O)(=O)c1ccc(NC[C@H]2COCCO2)c([N+](=O)[O-])c1)c1ccc(N2CCN(CC3=C(c4ccc(Cl)cc4)CC4(CCC4)CC3)CC2)cc1Oc1cnc2[nH]ccc2c1 [Compound 6, (S)-N-((4-(((1,4-dioxan-2-yl)methyl)amino)-3-nitrophenyl)sulfonyl)-2-((1H-pyrrolo[2,3-b]pyridin-5-yl)oxy)-4-(4-((6-(4-chlorophenyl)spiro[3.5]non-6-en-7-yl)methyl)piperazin-1-yl)benzamide]
RTV on day 21 after administration (mean ± standard error) [1]: 2.51 ± 0.25 | T/C (%) on day 21 after administration [1]: 49% | RTV on day 35 after administration (mean ± standard error) [1]: 4.89 ± 0.39 | T/C (%) on day 35 after administration [1]: 52% | CR (tumor complete regression), mice on day 21 after administration [1]: 0/5CR, 0/5PR, | PR (tumor partial regression), mice on day 21 after administration [1]: 0/5CR, 0/5PR, | CR (tumor complete regression), mice on day 46 after administration [1]: 0/5CR, 0/5PR, | PR (tumor partial regression), mice on day 46 after administration [1]: 0/5CR, 0/5PR, | Tumor remission rate % on day 21 after administration [1]: 0% | Tumor remission rate % on day 46 after administration [1]: 0%

CC[C@@]1(O)C(=O)OCc2c1cc1n(c2=O)Cc2cc3c(CN(C)C)c(O)ccc3nc2-1 [topotecan]
IC50 ([2]; NCI-H146 (SCLC), first experiment): 0.127 µM | IC50 ([2]; another NCI-H146 (SCLC) experiment): 0.068 µM | RTV on day 21 after administration (mean ± standard error) [1]: 0.26 ± 0.12 | T/C (%) on day 21 after administration [1]: 5% | RTV on day 35 after administration (mean ± standard error) [1]: 0.77 ± 0.35 | T/C (%) on day 35 after administration [1]: 8% | CR (tumor complete regression), mice on day 21 after administration ([1]; listed as TPT): 2 and 2/5 | PR (tumor partial regression), mice on day 21 after administration ([1]; listed as TPT): 3 and 3/5 | CR (tumor complete regression), mice on day 46 after administration [1]: 2/5 | PR (tumor partial regression), mice on day 46 after administration [1]: 0/5 | Tumor remission rate % on day 21 after administration [1]: 100% | Tumor remission rate % on day 46 after administration [1]: 40%
